Our source for the EC50 and IC50 values is patent US10364256B2 (GlaxoSmithKline Intellectual Property Development Limited, priority 2015, dated 2019).

Like-named read-outs stand apart in the source and are kept apart here.

For experiment [1], the system named is NQO1 specific enzyme activity in BEAS-2B cells (marker for NRF2 activation). Nature of the experiment: BEAS-2B NQO1 MTT Assay. As to conditions: Homo sapiens, compound incubated 48 hours, read-out: EC50 (NQO1 specific enzyme activity induction). It is filed as cell-based. The gist of the method: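 BEAS-2B cells treated with compound for 48 h at 37 °C, then lysed; NQO1 activity in lysates measured kinetically by MTT reduction at A570 over 30 min. pEC50 from 3-parameter fit of ΔOD/min versus log concentration; lysate also taken for Cell Titer Glo.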

The target in experiment [2] is T1, Keap1 Kelch domain (321-609) / TAMRA-labeled 16mer NRF2 peptide (ETGE motif) (Homo sapiens, UniProt Q14145).
T1 construct: the Kelch domain (321-609) of Keap1 is used
T1 sequence (Q14145 321-609): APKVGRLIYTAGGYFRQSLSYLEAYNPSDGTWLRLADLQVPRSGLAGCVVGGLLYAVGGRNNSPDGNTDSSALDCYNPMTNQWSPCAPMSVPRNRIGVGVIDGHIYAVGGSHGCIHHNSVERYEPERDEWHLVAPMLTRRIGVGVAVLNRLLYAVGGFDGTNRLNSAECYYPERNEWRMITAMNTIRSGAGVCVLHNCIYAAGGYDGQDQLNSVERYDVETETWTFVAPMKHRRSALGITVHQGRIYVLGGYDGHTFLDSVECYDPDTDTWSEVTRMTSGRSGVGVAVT
The experiment is described as follows: NRF2-Keap1 FP Assay (Keap1 Kelch fluorescence polarization). The class given is binding. As to conditions: 20 nM Keap1 (321-609), 8 nM Tamra labeled peptide. In outline:
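Compound dilutions (3-fold) were incubated 1 hr at room temperature with 20 nM Keap1 Kelch (321-609) and 8 nM TAMRA-labeled ETGE 16mer peptide. Buffer was 50 mM Tris pH 8.0, 100 mM NaCl, 5 mM MgCl2, 1 mM DTT, 2 mM CHAPS, 0.005% BSA. Fluorescence polarization (mP) was normalized to controls and fitted with a four-parameter equation to give pIC50.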

The target in experiment [3] is T2, full length Keap1 protein / full length NRF2 protein (Homo sapiens, UniProt Q14145).
T2 construct: full length NRF2 protein and full length Keap1 protein (Keap1 exists a dimer) are used; His
T2 sequence (Q14145 whole entry): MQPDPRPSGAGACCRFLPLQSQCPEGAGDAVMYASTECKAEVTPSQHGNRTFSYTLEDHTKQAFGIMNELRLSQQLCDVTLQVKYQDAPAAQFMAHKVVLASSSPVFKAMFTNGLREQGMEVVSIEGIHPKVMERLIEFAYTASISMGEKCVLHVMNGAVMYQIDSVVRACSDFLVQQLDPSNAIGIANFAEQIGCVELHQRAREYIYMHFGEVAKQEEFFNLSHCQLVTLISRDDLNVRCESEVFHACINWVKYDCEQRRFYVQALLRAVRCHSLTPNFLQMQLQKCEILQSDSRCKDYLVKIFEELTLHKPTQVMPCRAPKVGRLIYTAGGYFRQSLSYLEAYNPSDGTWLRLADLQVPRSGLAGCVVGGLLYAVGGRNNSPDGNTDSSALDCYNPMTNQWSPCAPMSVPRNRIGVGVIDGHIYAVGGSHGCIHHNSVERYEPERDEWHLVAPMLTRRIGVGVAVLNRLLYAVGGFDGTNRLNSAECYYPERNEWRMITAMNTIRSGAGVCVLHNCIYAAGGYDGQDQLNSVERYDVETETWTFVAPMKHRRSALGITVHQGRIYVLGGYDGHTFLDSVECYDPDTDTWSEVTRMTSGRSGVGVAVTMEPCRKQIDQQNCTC
The experiment is described as follows: NRF2-Keap1 TR-FRET Assay. The class given is binding. Conditions: 25 nM Keap1-FlagHis and 50 nM biotin-NRF2 added. The source says: In the NRF2-Keap1 TR-FRET (time-resolved fluorescence resonance energy transfer) assay, full length NRF2 protein and full length Keap1 protein (Keap1 exists a dimer) are used. The assay detects the ability of compound to displace the binding of FlagHis-tagged Keap1 with biotinylated, Avi-tagged NRF2 protein. Biotin-NRF2 binds to streptavidin-europium (a component of the detection mix) and Keap1-FlagHis is recognized by anti-Flag APC (allophycocyanin) antibody (also a component of the detection mix). If binding occurs between the two proteins, there will be an energy transfer from the Eu+3 (donor) at 615 nm to the APC (acceptor) at 665 nm. A potential Keap1 inhibitor will cause a reduction in the TR-FRET signal by interfering with the binding of Keap1 to NRF2.
One hundred nanoliters of 100× compound dose response curves (serial 3-fold dilutions) in DMSO are stamped using an Echo liquid handling system (Labcyte) into 384-well, low volume, black assay plates (Greiner, #784076), with DMSO in columns 6 and 18. The top concentration of compound is located in columns 1 and 13. All reagents are diluted in assay buffer (50 mM Tris, pH 8.0, 5 mM MgCl2, 100 mM NaCl, 0.005% BSA, 1 mM DTT, and 2 mM CHAPS). The BSA, DTT, and CHAPS are added to the assay buffer on the day of assay. Using a Multidrop Combi (Thermo Electron Corporation) equipped with a metal tip dispenser, 5 ul of 25 nM Keap1-FlagHis protein is added to all wells of the compound plate, with the exception of the wells in column 18. Wells in column 18 receive 5 ul of assay buffer instead. Plates are centrifuged at 500 rpm for 1 minute, covered with a plate lid, and incubated at 37° C. for 2.25 hours. Plates are then removed from the incubator and allowed to cool to RT for 15 minutes. Five microliters of 50 nM biotin-NRF2 protein is then added to all wells of the plates and the plates are spun at 500 rpm for 1 minute, followed by incubating at 4° C. for 1.25 hours. The plates are then allowed to warm to RT for 15 minutes, followed by the addition of 10 ul of detection mix (1 nM Streptavidin Eu+ W1024 and 5 ug/ml mouse anti-DYKDDDDK IgG conjugated to SureLight APC antibody; both from Columbia Biosciences) to all wells. Plates are spun at 500 rpm for 1 minute, incubated for 1 hour at RT, and read on an Envision plate reader using a 320 nm excitation filter and 615 nm and 665 nm emission filters. Compound response (% inhibition) and potency (pIC50) are calculated based on the ratio of the two emissions (665 nm/615 nm) and then the transformed data is normalized against controls in the assay (control 1=1% DMSO in the presence of NRF2 and Keap1 protein and control 2=1% DMSO in the absence of protein). Data analysis is handled using the software package Abase XE (Surrey, United Kingdom). The % inhibition values are calculated from the ratio (transformed) data by the equation: 100−(100*(compound response−average control 2)/(average control 1−average control2)). For calculation of pIC50s, Abase XE uses a four parameter equation. pIC50 is the negative log of the IC50.

For the molecule `CC(=O)N[C@@H]1CC[C@H](c2c(C(=O)O)cnn2-c2cccc(-c3cccc(OC(C)C)c3F)c2)C1` (racemic) [Example 13, 5-[(cis)-3-Acetamidocyclopentyl]-1-{3-[2-fluoro-3-(propan-2-yloxy)phenyl]phenyl}-1H-pyrazole-4-carboxylic Acid], in experiment [1], the 50% effective concentration (EC50) was in the range of 1000 to 10000 nM. For the same molecule, the IC50 is 1000 to 10000 nM in experiment [2] and 10000 to 100000 nM in experiment [3].

As to `Cn1cc([C@H]2C[C@@H]2c2c(C(=O)O)cnn2-c2cccc(-c3cccc(OCC(C)(C)C)c3)c2)nn1` (racemic) [Example 226, 5-((1,2-trans)-2-(1-Methyl-1H-1,2,3-triazol-4-yl)cyclopropyl)-1-(3′-(neopentyloxy)-[1,1′-biphenyl]-3-yl)-1H-pyrazole-4-carboxylic acid], the EC50 in experiment [1] lay within 10 to 100 nM. Further, the IC50 in experiment [2] and in experiment [3] was 100 to 1000 nM throughout.

`Cn1cc([C@H]2C[C@@H]2c2c(C(=O)O)cnn2-c2cccc(-c3cccc(OCc4cncnc4)c3)c2)nn1` (racemic) [Example 236, 5-((1,2-trans)-2-(1-Methyl-1H-1,2,3-triazol-4-yl)cyclopropyl)-1-(3′-(pyrimidin-5-ylmethoxy)-[1,1′-bipheny1]-3-yl)-1H-pyrazole-4-carboxylic acid]: the half-maximal effective concentration (EC50) in experiment [1] is 1000 to 10000 nM. Moreover, the IC50 in experiment [2] was 100 to 1000 nM; in experiment [3], 1000 to 10000 nM.

As for `Cn1cc([C@@H]2C[C@H]2c2c(C(=O)O)cnn2-c2cccc(-c3cccc(CN4CCCCC4)c3)c2)nn1` (racemic) [Example 247, 5-(trans-2-(1-Methyl-1H-1,2,3-triazol-4-yl)cyclopropyl)-1-(3′-(piperidin-1-ylmethyl)-[1,1′-biphenyl]-3-yl)-1H-pyrazole-4-carboxylic Acid], the EC50 in experiment [1] lay in the range of 1000 to 10000 nM. The IC50 in experiment [2] was 100 to 1000 nM; in experiment [3], 1000 to 10000 nM.

`Cn1cc([C@@H]2C[C@H]2c2c(C(=O)O)cnn2-c2cccc(-c3cccc(CN4CCOCC4)c3)c2)nn1` (racemic) [Example 248, 5-(trans-2-(1-Methyl-1H-1,2,3-triazol-4-yl)cyclopropyl)-1-(3′-(morpholinomethyl)-[1,1′-biphenyl]-3-yl)-1H-pyrazole-4-carboxylic Acid]: the EC50 in experiment [1] was 1000 to 10000 nM. For the same molecule, the IC50 in experiment [2] and in experiment [3] was 100 to 1000 nM each time.

With `CN(CC1CC1)C(=O)c1cccc(-c2cccc(-n3ncc(C(=O)O)c3[C@@H]3C[C@H]3c3cn(C)nn3)c2)c1F` (racemic) [Example 265], the EC50 in experiment [1] lay within 1000 to 10000 nM. Further, the IC50 in experiment [2] and in experiment [3] was 10 to 100 nM throughout.

As for `CCC[C@@H]1CCCCN1C(=O)c1cccc(-c2cc(C)cc(-n3ncc(C(=O)O)c3[C@H]3C[C@@H]3c3cn(C)nn3)c2)c1` (single isomer, unassigned) [Example 156], the EC50 in experiment [1] (BEAS-2B, 48 h) was 100 to 1000 nM. Further, the IC50 in experiment [2] and in experiment [3] was 100 to 1000 nM in each case.

As to `CN(C)C(=O)c1cccc(-c2cccc(-n3ncc(C(=O)O)c3C3CCCC3)c2)c1F` [Example 1, 5-Cyclopentyl-1-{3-[3-(dimethylcarbamoyl)-2-fluorophenyl]phenyl}-1H-pyrazole-4-carboxylic Acid], the EC50 in experiment [1] fell in the range of 1000 to 10000 nM. Also, the IC50 in experiment [2] is 100 to 1000 nM; in experiment [3], 10000 to 100000 nM.

As for `CN(C)C(=O)c1cccc(-c2cccc(-n3ncc(C(=O)O)c3C(F)(F)F)c2)c1F` [Example 2, 1-{3-[3-(Dimethylcarbamoyl)-2-fluorophenyl]phenyl}-5-(trifluoromethyl)-1H-pyrazole-4-carboxylic Acid], the concentration giving a half-maximal response (EC50) in experiment [1] is 1000 to 10000 nM. For the same molecule, the IC50 was 100 to 1000 nM in experiment [2] and 1000 to 10000 nM in experiment [3].

Take `CN(C(=O)c1cccc(-c2cccc(-n3ncc(C(=O)O)c3C3CC3)c2)c1F)C1CCCC1` [Example 3, 1-(3-{3-[Cyclopentyl(methyl)carbamoyl]-2-fluorophenyl}phenyl)-5-cyclopropyl-1H-pyrazole-4-carboxylic Acid]: the EC50 in experiment [1] was in the range of 1000 to 10000 nM. The values for the IC50 in experiment [2] and in experiment [3] were 100 to 1000 nM and 1000 to 10000 nM, respectively.

`CC(C)CN(C)C(=O)c1cccc(-c2cccc(-n3ncc(C(=O)O)c3C3CC3)c2)c1F` [Example 4, 5-Cyclopropyl-1-(3-{2-fluoro-3-[methyl(2-methylpropyl)carbamoyl]phenyl}phenyl)-1H-pyrazole-4-carboxylic Acid]: the EC50 in experiment [1] was in the range of 1000 to 10000 nM. For the same molecule, the IC50 lay within 100 to 1000 nM in experiment [2] and 1000 to 10000 nM in experiment [3].

Regarding `CN(C(=O)c1cccc(-c2cccc(-n3ncc(C(=O)O)c3C3CC3)c2)c1F)C1CCCCC1` [Example 5, 1-(3-{3-[Cyclohexyl(methyl)carbamoyl]-2-fluorophenyl}phenyl)-5-cyclopropyl-1H-pyrazole-4-carboxylic Acid], in experiment [1], the concentration giving a half-maximal response (EC50) lay within 1000 to 10000 nM. Besides, the IC50 is 100 to 1000 nM in experiment [2] and 1000 to 10000 nM in experiment [3].

As for `CC1(C)CCCN(C(=O)c2cccc(-c3cccc(-n4ncc(C(=O)O)c4C4CC4)c3)c2F)C1` [Example 6, 5-Cyclopropyl-1-{3-[3-(3,3-dimethylpiperidine-1-carbonyl)-2-fluorophenyl]phenyl}-1H-pyrazole-4-carboxylic Acid], in experiment [1], the EC50 lay within 1000 to 10000 nM. The figures for the IC50 in experiment [2] and in experiment [3] were 10 to 100 nM and 100 to 1000 nM, respectively.

Regarding `O=C(O)c1cnn(-c2cccc(-c3cccc(C(=O)N4CCCCCC4)c3F)c2)c1C1CC1` [Example 7, 1-{3-[3-(azepane-1-carbonyl)-2-fluorophenyl]phenyl}-5-cyclopropyl-1H-pyrazole-4-carboxylic Acid], the EC50 in experiment [1] lay within 1000 to 10000 nM. Also, the IC50 is 10 to 100 nM in experiment [2] and 1000 to 10000 nM in experiment [3].

`CCCN(CC1CC1)C(=O)c1cccc(-c2cccc(-n3ncc(C(=O)O)c3C3CC3)c2)c1F` [Example 9, 5-Cyclopropyl-1-(3-{3-[(cyclopropylmethyl)(propyl)carbamoyl]-2-fluorophenyl}phenyl)-1H-pyrazole-4-carboxylic Acid]: the EC50 in experiment [1] was in the range of 1000 to 10000 nM. The IC50 in experiment [2] is 10 to 100 nM; in experiment [3] it was 1000 to 10000 nM.

With `O=C(O)c1cnn(-c2cccc(-c3cccc(C(=O)N4CCCCCC4)c3)c2)c1C1CC1` [Example 10, 1-{3-[3-(Azepane-1-carbonyl)phenyl]phenyl}-5-cyclopropyl-1H-pyrazole-4-carboxylic Acid], the EC50 in experiment [1] fell in the range of 1000 to 10000 nM. In addition, the values for the IC50 in experiment [2] and in experiment [3] were 100 to 1000 nM and 1000 to 10000 nM, respectively.

Regarding `CC(C)Oc1cccc(-c2cccc(-n3ncc(C(=O)O)c3C(F)(F)F)c2)c1` [Example 11, 1-{3-[3-(propan-2-yloxy)phenyl]phenyl}-5-(trifluoromethyl)-1H-pyrazole-4-carboxylic Acid], the EC50 in experiment [1] was in the range of 1000 to 10000 nM. The IC50 in experiment [2] lay in the range of 1000 to 10000 nM; in experiment [3], 10000 to 100000 nM.

As to `CN(CC1CCCC1)C(=O)c1cccc(-c2cccc(-n3ncc(C(=O)O)c3C3CC3)c2)c1F` [Example 12, 1-(3-{3-[(Cyclopentylmethyl)(methyl)carbamoyl]-2-fluorophenyl}phenyl)-5-cyclopropyl-1H-pyrazole-4-carboxylic Acid], the EC50 in experiment [1] is 1000 to 10000 nM. The IC50 fell in the range of 10 to 100 nM in experiment [2] and 100 to 1000 nM in experiment [3].
